Test results as given in patent publication US5981507A, “Polymeric carriers linked to nucleotide analogues via a phosphoramide bond” (Advanced Magnetics, Inc., priority 1996, dated 1999).
Read-outs that look alike come from different tables or passages of the source.

Columns and labels:
[1] = Cytotoxicity in 2.2.15 cells (uptake of neutral red dye); format: cell-based; conditions: human, nine daily additions
Experimental: (§1) The antiviral activities and cytotoxicity of a macromolecular prodrug of Dextran-araA made according to the teachings in Example 40 and the parent nucleoside analog araA were evaluated using […] (obtained from transfection of the Hep G2 human hepatoblastoma cell line with HBV) as described by Korba and Gerin (Korba B E, Gerin J L., Antiviral Research 1992; 19:55-70.) It is standard system widely used to compare the safety and efficacy of drugs for the treatment of HBV. The data for β-L-FTC,a nucleoside analog with pharmacological properties similar to Lamivudine (3TC), in the same system are shown for comparison. Lamivudine is a recently developed nucleoside analog that has been approved by the U.S. FDA for the treatment of HIV and has shown promise in extensive clinical trials against HBV
Briefly, the test compounds were added to confluent cultures of 2.2.15 cells every 24 hours for nine consecutive days in fresh culture media (RPMI 1640 with 2% fetal bovine serum, Gibco Inc., Grand Island N.Y. U.S.A.). The amount of extracellular HBV virion DNA and intracellular HBV replication intermediates were determined using quantitative blot hybridization analyses (dot, Southern and northern blots, respectively, Korba B E, Gerin J L., Antiviral Research 1992; 19:55-70; Korba B E, Milman., Antiviral Research 1991; 15:217-228). […]

[2] = system: HBV; assay: Antiviral activity on HBV replication in 2.2.15 cells (blot hybridization of virion DNA and replicative intermediates); format: cell-based; conditions: for EC90: Hepatitis B virus, 90% inhibition of viral replication
Experimental: A common method of evaluating the success of antiviral and anticancer agents is by measuring the efficacy and toxicity in tissue culture systems. The antiviral activity of the macromolecular prodrug made according to the teachings in Example 40 was evaluated in […], a common assay for evaluating efficacy and toxicity of agent for Hepatitis B, as described in detail in Example 42.
as §1
Briefly, the test compounds were added to confluent cultures of 2.2.15 cells every 24 hours for nine consecutive days in fresh culture media (RPMI 1640 with 2% fetal bovine serum, Gibco Inc., Grand Island N.Y. U.S.A.). The amount of extracellular HBV virion DNA and intracellular HBV replication intermediates were determined using quantitative blot hybridization analyses (dot, Southern and northern blots, respectively, Korba B E, Gerin J L., Antiviral Research 1992; 19:55-70; Korba B E, Milman., Antiviral Research 1991; 15:217-228).
Efficacy was determined by the concentrations of agent giving 90% inhibition of viral replication (EC90) as measured in changes of HBV virion DNA and replicative intermediates. Cytotoxicity caused by the agents was measured by the uptake of neutral red dye. The cytotoxic concentration (CC50), was considered to be the concentration at which 50% of the cells took up due the dye. The selectivity index (SI, CC50 /EC90) is measure of drug toxicity in relation to drug efficacy.

[3] = background art; cited from earlier work
[4] = system: 2.2.15 cells; conditions: β-L-FTC; Schinazi et al. Antimicrob. Agent Chem (1994) 38, 2172; cited from earlier work
[5] = system: HBV; conditions: β-L-FTC, Schinazi et al. 1994, cited from earlier work
[6] = Intracellular RI DNA (values in parentheses)

With `Nc1ncnc2c1ncn2[C@@H]1O[C@H](CO)[C@@H](O)[C@@H]1O` [araA] the CC50 [1] was 188 ± 20 µM, the “SI (CC50/EC90)” value ([2]; Extracellular DNA) was 11 and the EC90 ([2]; Extracellular DNA (HBV virion)) was 17 ± 1.9 µM. For the same compound, the EC90 [2, 6] was 25 ± 2.1 µM, the “SI (CC50/EC90)” value [2, 6] was 7.5 and the “SI (rounded)” value ([2]; text statement on the SI of Table 3) was “about 10”.

For `O=c1[nH]cnc2c1ncn2[C@@H]1O[C@H](CO)[C@@H](O)[C@@H]1O` [arahypoxanthine], the antiviral effect [3] is given as “little antiviral effect”.

In the case of `Nc1nc(=O)n([C@@H]2CS[C@H](CO)O2)cc1F` [β-L-FTC], the CC50 [4] is given as 746 µM, the EC90 ([5]; Extracellular DNA) is given as 1100 nM and the “SI (CC50/EC90)” value ([5]; Extracellular DNA) is given as 678. The EC90 ([5]; Intracellular RI DNA) was 390 nM and the “SI (CC50/EC90)” value ([5]; Intracellular RI DNA) was 1913.
